Ends that are not written are not given here.
Legend:
[1] = test system: SGBS cells; test: PIRA antagonist assay: insulin stimulated 14C-glucose uptake; format: cell-based; conditions: SGBS cells (human adipocyte cell line); FIG. 1
Description: In order to identify an insulin receptor binding peptide as an antagonist (PIRA), a candidate peptide can be tested in a glucose uptake assay in e.g. SGBS cells (a human adipocyte cell line) or primary rodent adipocytes. Briefly, the cells are incubated with various concentrations of insulin and subsequently ^14C-glucose uptake is measured. To test a peptide for antagonist properties, a submaximally stimulating concentration of insulin (e.g., resulting in half maximal insulin response) is added and also a dilution series of the peptide to be tested. If the peptide is a PIRA, the insulin induced response is reduced to or below the baseline response with increasing concentration of PIRA and the potency of the PIRA can be estimated from the concentration of PIRA necessary to observe the reduction in response.

[2] = molecular target: insulin receptor (Homo sapiens, UniProt P06213); test: Competition binding assay with 125I-labeled cognate ligand, insulin receptor; conditions: 125I-labeled ligand
Description: (§1) To test the selectivity of PIRA S661 for the insulin receptor versus a related receptor, the IGF1 receptor, competition binding assays were carried out using both receptors and their cognate ligands in ^125I-labeled form.

[3] = molecular target: IGF1 receptor (Homo sapiens, UniProt P08069); test: Competition binding assay with 125I-labeled cognate ligand, IGF1 receptor; conditions: 125I-labeled ligand, affinity too low to be measured
Description: as §1

[4] = test system: Zucker Obese rats; test: Glucose profile after i.v. S661 at different doses followed by i.p. human insulin; format: in vivo, rat
Description: FIG. 2. Glucose profile in Zucker obese (ZO) male rats after intravenous (i.v.) administration of different doses of peptidic insulin receptor antagonist S661, followed by intraperitoneal (i.p.) administration of human insulin.
Nine groups of 5 or 6 male, 16 week old Zucker Obese rats (Charles River) with an average weight of about 580 gram were kept on ad lib Purina 5008 and ad lib drinking water and fasted overnight for the experiment. The glucose level was tested at 20 minutes and 10 minutes prior to administration of the PIRA designated S661 (described above) Intravenous (i.v.) administration of different doses of S661 in PBS or vehicle was followed by (10 minutes after administration of S661) intraperitoneal (i.p.) administration of different amounts of human insulin in PBS or vehicle. Blood glucose levels were measured at 10, 20, 30, 40, 60, 80, 120, and 180 minutes after injection of insulin.

[5] = test system: Zucker Obese rats; test: Glucose profile after i.v. S661 followed after different times by i.p. human insulin; format: in vivo, rat; conditions: 30 nmol/kg S661 i.v. at various times before 30 nmol/kg human insulin i.p., FIG. 3
Description: FIG. 3. Glucose profile in ZO rats after i.v. administration of Insulin Receptor Antagonist, S661, followed after different times by i.p. administration of human insulin.
Eight groups of 5 to 7 male, 15 week old Zucker Obese rats (Charles River) with an average weight of about 550 gram were kept on ad lib Purina 5008 and ad lib drinking water and fasted overnight for the experiment. PIRA S661 in PBS was administered i.v. at 30 nmol/kg at various times before the i.p. administration of 30 nmol/kg human insulin in PBS.

[6] = 3 nmol/kg S661 i.v., 30 nmol/kg insulin i.p., Zucker Obese rats

In the case of “GSLDESFYDWFERQLGGGSGGSSLEEEWAQIQCEVWGRGCPSY-amide (GSLDESFYDWFERQLGGGSGGSSLEEEWAQIQCEVWGRGCPSY-NH2; cysteine pairing not given here) [S661, peptidic insulin receptor antagonist]”, the “effect on submaximally insulin stimulated glucose uptake” value [1] is reported as “inhibition of submaximally insulin stimulated glucose uptake”, the “affinity for the insulin receptor relative to human insulin” value [2] is reported as 48 % of that of human insulin and the “affinity for the IGF1 receptor relative to IGF1” value [3] is reported as “at least 200.000 fold lower than that of IGF1”. The “glucose levels as compared to control” value [4, 6] was “slightly higher”, the “glucose levels as compared to insulin alone” value [4, 6] was “significantly higher levels” and the “blood glucose levels versus insulin alone or only vehicle” value ([4]; male Zucker Obese rats, fasted, S661 i.v. 10 minutes before i.p. human insulin, FIG. 2) was “significantly higher”. For the same substance, the “time after administration at which still an effective antagonist (blood glucose)” value [5] was no less than 6 h.

Source: patent US20090197805A1, “Insulin receptor antagonists and related compositions, uses and methods” (Novo Nordisk A/S, priority 2005, published 2009)
